Drawing on BindingDB's records for doi:10.1021/jm00375a008 (1984), this text covers Kd for one compound.

For this assay, the target named is Progesterone receptor (Gallus gallus) (UniProt P07812). In words: Equilibrium dissociation constant for chick oviduct progesterone receptor.

Structures are written as SMILES.

Progesterone receptor (Gallus gallus), sequence (P07812 whole entry, looked up): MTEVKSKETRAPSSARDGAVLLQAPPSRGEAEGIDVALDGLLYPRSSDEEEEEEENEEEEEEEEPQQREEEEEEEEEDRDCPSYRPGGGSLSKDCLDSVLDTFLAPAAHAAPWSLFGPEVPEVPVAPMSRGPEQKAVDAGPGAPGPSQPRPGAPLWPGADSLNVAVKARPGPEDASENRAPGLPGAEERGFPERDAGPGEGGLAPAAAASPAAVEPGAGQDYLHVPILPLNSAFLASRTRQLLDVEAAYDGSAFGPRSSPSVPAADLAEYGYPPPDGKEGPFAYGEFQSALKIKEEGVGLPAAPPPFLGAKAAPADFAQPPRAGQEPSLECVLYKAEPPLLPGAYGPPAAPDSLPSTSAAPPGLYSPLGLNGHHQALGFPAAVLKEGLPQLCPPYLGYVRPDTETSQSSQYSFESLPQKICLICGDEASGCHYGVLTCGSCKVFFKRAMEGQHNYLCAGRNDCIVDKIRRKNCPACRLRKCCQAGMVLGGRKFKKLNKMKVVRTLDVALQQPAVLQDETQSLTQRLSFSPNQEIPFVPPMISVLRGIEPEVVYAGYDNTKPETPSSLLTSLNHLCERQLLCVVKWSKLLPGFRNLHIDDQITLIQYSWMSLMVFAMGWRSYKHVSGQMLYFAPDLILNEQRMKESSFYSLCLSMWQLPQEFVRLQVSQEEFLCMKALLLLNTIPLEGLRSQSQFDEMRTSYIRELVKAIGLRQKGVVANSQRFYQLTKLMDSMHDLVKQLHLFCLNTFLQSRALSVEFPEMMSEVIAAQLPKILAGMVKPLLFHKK

`C#C[C@@H](O)C12CCCC1C1CCC3=CC(=O)CC[C@@H]3C1CC2` (stereo partly specified): the affinity, expressed as Kd, was 160 nM.
